According to US20130018033A1, “RAF INHIBITOR COMPOUNDS AND METHODS OF USE THEREOF” (ARRAY BIOPHARMA INC., priority 2009, published 2013):
Like-named read-outs stand apart in the source and are kept apart here.

How the values were obtained:
V600E full-length B-Raf = target: T1, V600E full-length B-Raf (Homo sapiens, UniProt P15056, V600E); experiment: B-Raf IC50 assay (Example A); assay type: biochemical
T1 construct: 1 μM FSBA-MEK and 20 nM V600E full-length B-Raf; made in house; host or cells: Sf9 insect cells (baculovirus)
T1 sequence (P15056 whole entry V600E): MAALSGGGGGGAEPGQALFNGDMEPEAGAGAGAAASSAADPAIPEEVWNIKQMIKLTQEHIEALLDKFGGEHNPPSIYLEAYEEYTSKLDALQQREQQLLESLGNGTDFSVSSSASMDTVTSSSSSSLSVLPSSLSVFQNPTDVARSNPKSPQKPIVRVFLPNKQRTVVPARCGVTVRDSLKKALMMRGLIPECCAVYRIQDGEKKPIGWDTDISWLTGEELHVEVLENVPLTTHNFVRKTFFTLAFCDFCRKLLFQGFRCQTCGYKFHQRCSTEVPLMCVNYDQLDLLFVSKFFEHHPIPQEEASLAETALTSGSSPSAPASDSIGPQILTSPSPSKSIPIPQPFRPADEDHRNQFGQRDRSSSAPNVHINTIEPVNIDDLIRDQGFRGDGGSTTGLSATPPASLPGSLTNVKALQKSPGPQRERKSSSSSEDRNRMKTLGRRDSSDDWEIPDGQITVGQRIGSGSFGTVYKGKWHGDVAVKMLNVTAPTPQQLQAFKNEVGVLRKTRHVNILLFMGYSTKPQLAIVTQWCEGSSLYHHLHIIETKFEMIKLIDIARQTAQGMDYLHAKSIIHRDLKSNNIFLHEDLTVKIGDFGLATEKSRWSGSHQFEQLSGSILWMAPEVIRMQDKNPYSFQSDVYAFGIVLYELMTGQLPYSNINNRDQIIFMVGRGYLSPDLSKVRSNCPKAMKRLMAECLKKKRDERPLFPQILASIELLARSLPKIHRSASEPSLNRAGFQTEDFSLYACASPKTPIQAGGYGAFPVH
From the text: Determining the activity of Raf in the sample is possible by a number of direct and indirect detection methods (US 2004/0082014). Activity of human recombinant B-Raf protein may be assessed in vitro by assay of the incorporation of radio labeled phosphate to recombinant MAP kinase (MEK), a known physiologic substrate of B-Raf, according to US 2004/0127496 and WO 03/022840. The activity/inhibition of V600E full-length B-Raf was estimated by measuring the incorporation of radio labeled phosphate from [γ-^33P]ATP into FSBA-modified wild-type MEK (see Example A).
Activity of human recombinant B-Raf protein may be assessed in vitro by assay of the incorporation of radio labeled phosphate to recombinant MAP kinase (MEK), a known physiologic substrate of B-Raf, according to US 2004/0127496 and WO 03/022840. Catalytically active human recombinant B-Raf protein is obtained by purification from sf9 insect cells infected with a human B-Raf recombinant baculovirus expression vector.
The activity/inhibition of V600E full-length B-Raf was estimated by measuring the incorporation of radio labeled phosphate from [γ-^33P]ATP into FSBA-modified wild-type MEK. The 30-μL assay mixtures contained 25 mM Na Pipes, pH 7.2, 100 mM KCl, 10 mM MgCl2, 5 mM β-glycerophosphate, […], 4 μM ATP, 500 nCi [γ-^33P]ATP, 1 μM FSBA-MEK and 20 nM V600E full-length B-Raf. Incubations were carried out at 22° C. in a Costar 3365 plate (Corning). Prior to the assay, the B-Raf and FSBA-MEK were preincubated together in assay buffer at 1.5×(20 μL of 30 nM and 1.5 μM, respectively) for 15 minutes, and the assay was initiated by the addition of 10 μL of 10 μM ATP. Following the 60-minute incubation, the assay mixtures were quenched by the addition of 100 μL of 25% TCA, the plate was mixed on a rotary shaker for 1 minute, and the product was captured on a Perkin-Elmer GF/B filter plate using a Tomtec Mach III Harvester. After sealing the bottom of the plate, 35 μL of Bio-Safe II (Research Products International) scintillation cocktail were added to each well and the plate was top-sealed and counted in a Topcount NXT (Packard).

[1] = system: basal ERK1/2 phosphorylation in Malme-3M cells; experiment: Cellular ERK 1/2 phosphorylation assay (Example A1); assay type: cell-based; conditions: Homo sapiens, 1 hour incubation, pERK normalized to total ERK, read-out: P-ERK Malme3-M IC50
Description: Inhibition of basal ERK1/2 phosphorylation was determined by the following in vitro […], which comprises incubating cells with a compound of Formula I for 1 hour and quantifying the fluorescent pERK signal on fixed cells and normalizing to total ERK signal.
Malme-3M cells were obtained from ATCC and grown in RPMI-1640 supplemented with 10% fetal bovine serum. Cells were plated in 96-well plates at 24,000 cells/well and allowed to attach for 16-20 hours at 37° C., 5% CO2. The media was removed, and DMSO-diluted compounds were added in RPMI-1640 at a final concentration of 1% DMSO. The cells were incubated with the compounds for 1 hour at 37° C., 5% CO2. The cells were washed with PBS and fixed in 3.7% formaldehyde in PBS for 15 minutes. This was followed by washing in PBS/0.05% Tween20 and permeabilizing in −20° C. 100% MeOH for 15 minutes. Cells were washed in PBS/0.05% Tween20 then blocked in Odyssey blocking buffer (LI-COR Biosciences) for 1 hour. Antibodies to phosphorylated ERK (1:400, Cell Signaling #9106, monoclonal) and total ERK (1:400, Santa Cruz Biotechnology #sc-94, polyclonal) were added to the cells and incubated 16-20 hours at 4° C. After washing with PBS/0.05% Tween20, the cells were incubated with fluorescently-labeled secondary antibodies (1:1000 goat anti-rabbit IgG-IRDye800, Rockland and 1:500 goat anti-mouse IgG-Alexa Fluor 680, Molecular Probes) for an additional hour. Cells were then washed and analyzed for fluorescence at both wavelengths using the Odyssey Infrared Imaging System (LI-COR Biosciences). Phosphorylated ERK signal was normalized to total ERK signal.

[2] = B-Raf V600E assay of Example A, read-out: IC50
[3] = [γ-33P]ATP incorporation into FSBA-MEK, 4 μM ATP, read-out: BRAF V600E IC50

Compound | IC50 (V600E full-length B-Raf; [2]) [µM] | IC50 (V600E full-length B-Raf; [3]) [µM] | IC50 [1] [nM] | IC50 (V600E full-length B-Raf; BRAF V600E IC50 (μM), [γ-33P]ATP incorporation into FSBA-MEK, 4 μM ATP) [µM]
Nc1ncnc2c(C(=O)Nc3c(Cl)ccc(NS(=O)(=O)CCCF)c3F)ccnc12 [Example 67, 4-Amino-pyrido[3,2-d]pyrimidine-8-carboxylic acid [6-chloro-2-fluoro-3-(3-fluoro-propane-1-sulfonylamino)-phenyl]-amide] | < 0.1 | 0.00042 | 2.8 | –
CCS(=O)(=O)Nc1ccc(Cl)c(NC(=O)c2cccc3c(N)ncnc23)c1F [Example 18, 4-Amino-quinazoline-8-carboxylic acid (6-chloro-3-ethanesulfonyl-amino-2-fluoro-phenyl)-amide] | < 0.1 | 0.00153 | 18.2 | –
O=C(Nc1c(Cl)ccc(NS(=O)(=O)CCCF)c1Cl)c1cccc2cncnc12 [Example 57, Quinazoline-8-carboxylic acid [2,6-dichloro-3-(3-fluoro-propane-1-sulfonylamino)-phenyl]-amide] | < 0.1 | 0.00096 | 87.6 | –
CC(C)CS(=O)(=O)Nc1ccc(F)c(NC(=O)c2cccc3c(N)ncnc23)c1F [Example 12, 4-Amino-quinazoline-8-carboxylic acid [2,6-difluoro-3-(2-methyl-propane-1-sulfonylamino)-phenyl]-amide] | < 0.1 | 0.00155 | 8.54 | –
CCCS(=O)(=O)Nc1ccc(Cl)c(NC(=O)c2cccc3c(N)ncnc23)c1 [Example 22, 4-Amino-quinazoline-8-carboxylic acid [2-chloro-5-(propane-1-sulfonylamino)-phenyl]-amide] | < 0.1 | 0.0649 | 1110 | –
CCN(C)S(=O)(=O)Nc1ccc(F)c(NC(=O)c2cccc3c(N)ncnc23)c1Cl [Example 37, 4-Amino-N-(2-chloro-3-(N-ethyl-N-methylsulfamoylamino)-6-fluorophenyl)quinazoline-8-carboxamide] | < 0.1 | 0.0215 | 39.7 | –
CCCS(=O)(=O)Nc1ccc(F)c(NC(=O)c2cc(C)cc3c(NC4CCOCC4)ncnc23)c1F [Example 74, 6-Methyl-4-(tetrahydro-pyran-4-ylamino)-quinazoline-8-carboxylic acid [2,6-difluoro-3-(propane-1-sulfonylamino)-phenyl]-amide] | – | > 1 | – | –
C#Cc1c(NS(=O)(=O)CCC)ccc(Cl)c1NC(=O)c1cccc2c(N)ncnc12 [Example 31, 4-Amino-quinazoline-8-carboxylic acid [6-chloro-2-ethynyl-3-(propane-1-sulfonylamino)-phenyl]-amide] | < 0.1 | 0.0004 | 42 | –
CCCS(=O)(=O)Nc1ccc(Cl)c(NC(=O)c2cccc3c(N)ncnc23)c1F [Example 17, 4-Amino-quinazoline-8-carboxylic acid [6-chloro-2-fluoro-3-(propane-1-sulfonylamino)-phenyl]-amide] | < 0.1 | – | 8.7 | 0.00058
CCCS(=O)(=O)Nc1cc(F)c(F)c(NC(=O)c2cccc3c(NC4CCCCC4)ncnc23)c1F [Example 41, 4-Cyclohexylamino-quinazoline-8-carboxylic acid [2,3,6-trifluoro-5-(propane-1-sulfonylamino)-phenyl]-amide] | – | > 1 | – | –
CCCS(=O)(=O)Nc1cc(F)c(F)c(NC(=O)c2cccc3c(NC4CC4)ncnc23)c1F [Example 45, 4-Cyclopropylamino-quinazoline-8-carboxylic acid [2,3,6-trifluoro-5-(propane-1-sulfonylamino)-phenyl]-amide] | < 1 | 0.545 | – | –
CCCS(=O)(=O)Nc1ccc(F)c(NC(=O)c2cc(C)cc3c(NC4CC4)ncnc23)c1F [Example 73, 4-Cyclopropylamino-6-methyl-quinazoline-8-carboxylic acid [2,6-difluoro-3-(propane-1-sulfonylamino)-phenyl]-amide] | < 1 | 0.879 | – | –
CCCS(=O)(=O)Nc1cc(F)c(F)c(NC(=O)c2cccc3c(NC4CCNCC4)ncnc23)c1F [Example 44, 4-(Piperidin-4-ylamino)-quinazoline-8-carboxylic acid [2,3,6-trifluoro-5-(propane-1-sulfonylamino)-phenyl]-amide] | – | > 1 | – | –
CCCS(=O)(=O)Nc1ccc(F)c(NC(=O)c2cc(C)cc3c(NC4CCC(F)(F)CC4)ncnc23)c1F [Example 76, 4-(4,4-Difluoro-cyclohexylamino)-6-methyl-quinazoline-8-carboxylic acid [2,6-difluoro-3-(propane-1-sulfonylamino)-phenyl]-amide] | – | > 1 | – | –
CCCS(=O)(=O)Nc1cc(F)c(F)c(NC(=O)c2cccc3c(NC4CCOCC4)ncnc23)c1F [Example 42, 4-(Tetrahydropyran-4-ylamino)-quinazoline-8-carboxylic acid [2,3,6-trifluoro-5-(propane-1-sulfonylamino)-phenyl]-amide] | – | > 1 | – | –
CCCS(=O)(=O)Nc1cc(F)c(F)c(NC(=O)c2cccc3c(NC)ncnc23)c1F [Example 50, 4-Methylamino-quinazoline-8-carboxylic acid [2,3,6-trifluoro-5-(propane-1-sulfonylamino)-phenyl]-amide] | – | > 1 | – | –
CCCS(=O)(=O)Nc1ccc(F)c(NC(=O)c2cc(C)cc3c(NC4CCC4)ncnc23)c1F [Example 75, 4-Cyclobutylamino-6-methyl-quinazoline-8-carboxylic acid [2,6-difluoro-3-(propane-1-sulfonylamino)-phenyl]-amide] | – | > 1 | – | –
CCCS(=O)(=O)Nc1cc(F)c(F)c(NC(=O)c2cccc3c(NC4CCC(F)(F)CC4)ncnc23)c1F [Example 46, 4-(4,4-Difluoro-cyclohexylamino)-quinazoline-8-carboxylic acid [2,3,6-trifluoro-5-(propane-1-sulfonylamino)-phenyl]-amide] | – | > 1 | – | –
CCCS(=O)(=O)Nc1cc(F)c(F)c(NC(=O)c2cccc3c(NCC)ncnc23)c1F [Example 49, 4-Ethylamino-quinazoline-8-carboxylic acid [2,3,6-trifluoro-5-(propane-1-sulfonylamino)-phenyl]-amide] | < 1 | 0.737 | – | –
O=C(Nc1c(F)ccc(NS(=O)(=O)CC2CC2)c1F)c1cccc2c(NC3CC3)ncnc12 [Example 53, 4-Cyclopropylamino-quinazoline-8-carboxylic acid (3-cyclopropylmethanesulfonylamino-2,6-difluoro-phenyl)-amide] | < 1 | 0.976 | – | –
CCCS(=O)(=O)Nc1ccc(F)c(NC(=O)c2cc(C)cc3c(NC4CCCC4)ncnc23)c1F [Example 71, 4-Cyclopentylamino-6-methyl-quinazoline-8-carboxylic acid [2,6-difluoro-3-(propane-1-sulfonylamino)-phenyl]-amide] | – | > 1 | – | –
CCCS(=O)(=O)Nc1cc(F)c(F)c(NC(=O)c2cccc3c(Nc4ccn(C)n4)ncnc23)c1F [Example 48, 4-(1-Methyl-1H-pyrazol-3-ylamino)-N-(2,3,6-trifluoro-5-(propylsulfonamido)phenyl)quinazoline-8-carboxamide] | – | > 1 | – | –
